Where “and” joins values, the source holds several entries; their conditions need not be identical. Identical values can stand only once. Toxic doses and inconclusive results are not listed.
Test system: L1210 leukemia ip in BDF1 mice, survival T/C
Assay: NCI In Vivo Anticancer Drug Screen. Data for tumor model L1210 Leukemia (intraperitoneal) in B6D2F1 (BDF1) mice
Conditions: endpoint: mean survival time, higher = longer survival
Method in brief: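 Ratio derived from survival: compound-dosed mice over vehicle-dosed mice, all bearing a transplantable tumor.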

[1] = dose: 100.0 mg/kg/injection, schedule: Q01DX009 (ip), vehicle: Klucel (hydroxypropylcellulose) (HPC)
[2] = dose: 100.0 mg/kg/injection, schedule: Q04DX003 (ip), vehicle: Klucel (hydroxypropylcellulose) (HPC)
[3] = dose: 200.0 mg/kg/injection, schedule: Q01DX009 (ip), vehicle: Klucel (hydroxypropylcellulose) (HPC)
[4] = dose: 200.0 mg/kg/injection, schedule: Q04DX003 (ip), vehicle: Klucel (hydroxypropylcellulose) (HPC)
[5] = dose: 400.0 mg/kg/injection, schedule: Q01DX009 (ip), vehicle: Klucel (hydroxypropylcellulose) (HPC)
[6] = dose: 100.0 mg/kg/injection, schedule: Q04DX003 (ip), vehicle: saline with Tween-80
[7] = dose: 200.0 mg/kg/injection, schedule: Q04DX003 (ip), vehicle: saline with Tween-80
[8] = dose: 400.0 mg/kg/injection, schedule: Q04DX003 (ip), vehicle: saline with Tween-80
[9] = dose: 100.0 mg/kg/injection, schedule: Q01DX009 (ip), vehicle: saline with Tween-80
[10] = dose: 200.0 mg/kg/injection, schedule: Q01DX009 (ip), vehicle: saline with Tween-80
[11] = dose: 400.0 mg/kg/injection, schedule: Q01DX009 (ip), vehicle: saline with Tween-80
[12] = dose: 50.0 mg/kg/injection, schedule: Q01DX001 (ip), vehicle: saline
[13] = dose: 100.0 mg/kg/injection, schedule: Q01DX001 (ip), vehicle: saline

C1=C\CCC2(OCCO2)C2(CC/1)OCCO2
T/C (dose: 50.0 mg/kg/injection, schedule: Q04DX003 (ip), vehicle: Klucel (hydroxypropylcellulose) (HPC)): 100 % of control
T/C (dose: 100.0 mg/kg/injection, schedule: Q01DX001 (ip), vehicle: Klucel (hydroxypropylcellulose) (HPC)): 111 % of control
T/C [1]: 104 % of control
T/C [2]: 100 % of control
T/C (dose: 200.0 mg/kg/injection, schedule: Q01DX001 (ip), vehicle: Klucel (hydroxypropylcellulose) (HPC)): 109 % of control
T/C [3]: 98 % of control
T/C [4]: 97 % of control
T/C (dose: 400.0 mg/kg/injection, schedule: Q01DX001 (ip), vehicle: Klucel (hydroxypropylcellulose) (HPC)): 105 % of control
T/C [5]: 98 % of control
T/C (dose: 400.0 mg/kg/injection, schedule: Q04DX003 (ip), vehicle: Klucel (hydroxypropylcellulose) (HPC)): 95 % of control

Cc1ccc(NC(=O)C(F)(F)F)cc1F
T/C (dose: 50.0 mg/kg/injection, schedule: Q01DX009 (ip), vehicle: Klucel (hydroxypropylcellulose) (HPC)): 93 % of control
T/C [1]: 104 % of control
T/C [3]: 97 % of control

O=C1OC(c2ccc(Cl)cc2)=N/C1=C\c1ccccc1
T/C [6]: 100 % of control
T/C [7]: 90 % of control
T/C [8]: 91 % of control

O=NN(CCCl)C(=O)NC(C(=O)O)C1CCCCC1 (stereo unspecified)
T/C (dose: 8.0 mg/kg/injection, schedule: Q01DX001 (ip), vehicle: saline with Tween-80): 118 % of control
T/C (dose: 12.0 mg/kg/injection, schedule: Q01DX001 (ip), vehicle: saline with Tween-80): 171 % of control
T/C (dose: 26.0 mg/kg/injection, schedule: Q01DX001 (ip), vehicle: saline with Tween-80): 153 % of control
T/C (dose: 40.0 mg/kg/injection, schedule: Q01DX001 (ip), vehicle: saline with Tween-80): 253 % of control
T/C (dose: 60.0 mg/kg/injection, schedule: Q01DX001 (ip), vehicle: saline with Tween-80): 412 % of control
T/C (dose: 90.0 mg/kg/injection, schedule: Q01DX001 (ip), vehicle: saline with Tween-80): 482 % of control
T/C (dose: 133.0 mg/kg/injection, schedule: Q01DX001 (ip), vehicle: saline with Tween-80): 266 % of control

CC(C)c1ccc(/C(=N\NC(N)=S)C2CC2)cc1
T/C (dose: 1.0 mg/kg/injection, schedule: Q01DX Z (ip), vehicle: methylcellulose (MC)): 93 % of control
T/C (dose: 2.0 mg/kg/injection, schedule: Q01DX Z (ip), vehicle: methylcellulose (MC)): 91 % of control
T/C (dose: 5.0 mg/kg/injection, schedule: Q01DX Z (ip), vehicle: methylcellulose (MC)): 94 % of control
T/C (dose: 10.0 mg/kg/injection, schedule: Q01DX Z (ip), vehicle: methylcellulose (MC)): 102 % of control

COc1ccc(OC)c(NC(=O)c2ccccc2Cl)c1
T/C [9]: 93 % of control and 102 % of control
T/C (dose: 100.0 mg/kg/injection, schedule: Q04DX002 (ip), vehicle: saline with Tween-80): 103 % of control and 111 % of control
T/C [6]: 95 % of control
T/C [10]: 94 % of control and 101 % of control
T/C (dose: 200.0 mg/kg/injection, schedule: Q04DX002 (ip), vehicle: saline with Tween-80): 93 % of control and 100 % of control
T/C [7]: 94 % of control
T/C [11]: 96 % of control
T/C (dose: 400.0 mg/kg/injection, schedule: Q04DX002 (ip), vehicle: saline with Tween-80): 103 % of control and 104 % of control
T/C [8]: 97 % of control

CC(C#N)N(C)C (stereo unspecified)
T/C (dose: 5.0 mg/kg/injection, schedule: Q01DX001 (ip), vehicle: saline): 96 % of control
T/C (dose: 10.0 mg/kg/injection, schedule: Q01DX001 (ip), vehicle: saline): 104 % of control
T/C (dose: 10.0 mg/kg/injection, schedule: Q01DX009 (ip), vehicle: saline): 98 % of control
T/C (dose: 20.0 mg/kg/injection, schedule: Q01DX001 (ip), vehicle: saline): 102 % of control
T/C (dose: 20.0 mg/kg/injection, schedule: Q01DX009 (ip), vehicle: saline): 109 % of control
T/C (dose: 40.0 mg/kg/injection, schedule: Q01DX009 (ip), vehicle: saline): 98 % of control

COc1cc([N+](=O)[O-])ccc1NC(=O)C(Br)C(Br)c1ccccc1 (stereo unspecified)
T/C (dose: 100.0 mg/kg/injection, schedule: Q01DX009 (ip), vehicle: other): 110 % of control
T/C (dose: 200.0 mg/kg/injection, schedule: Q01DX009 (ip), vehicle: other): 96 % of control
T/C (dose: 400.0 mg/kg/injection, schedule: Q01DX009 (ip), vehicle: other): 88 % of control

CC(C)(CCC(=O)O)CCC(=O)O
T/C (dose: 50.0 mg/kg/injection, schedule: Q01DX001 (ip), vehicle: carboxymethylcellulose (CMC)): 100 % of control
T/C (dose: 100.0 mg/kg/injection, schedule: Q01DX001 (ip), vehicle: carboxymethylcellulose (CMC)): 111 % of control
T/C (dose: 200.0 mg/kg/injection, schedule: Q01DX001 (ip), vehicle: carboxymethylcellulose (CMC)): 100 % of control
T/C (dose: 400.0 mg/kg/injection, schedule: Q01DX001 (ip), vehicle: carboxymethylcellulose (CMC)): 94 % of control

Nc1ncc([N+](=O)[O-])s1
T/C (dose: 25.0 mg/kg/injection, schedule: Q04DX002 (ip), vehicle: Klucel (hydroxypropylcellulose) (HPC)): 95 % of control
T/C [12]: 98 % of control
T/C (dose: 50.0 mg/kg/injection, schedule: Q04DX002 (ip), vehicle: Klucel (hydroxypropylcellulose) (HPC)): 98 % of control
T/C [13]: 98 % of control
T/C (dose: 100.0 mg/kg/injection, schedule: Q04DX002 (ip), vehicle: Klucel (hydroxypropylcellulose) (HPC)): 115 % of control
T/C (dose: 200.0 mg/kg/injection, schedule: Q01DX001 (ip), vehicle: saline): 98 % of control

Nc1nc2c(c(=O)[nH]1)N1CN(c3ccc(C(=O)NC(CCC(=O)O)C(=O)O)cc3)CCC1CN2 (stereo unspecified)
T/C (dose: 1.0 mg/kg/injection, schedule: Q01DX009 (ip), vehicle: saline): 94 % of control
T/C (dose: 2.0 mg/kg/injection, schedule: Q01DX009 (ip), vehicle: saline): 100 % of control
T/C (dose: 4.0 mg/kg/injection, schedule: Q01DX009 (ip), vehicle: saline): 89 % of control
T/C (dose: 4.0 mg/kg/injection, schedule: Q04DX003 (ip), vehicle: saline): 94 % of control
T/C (dose: 8.0 mg/kg/injection, schedule: Q01DX009 (ip), vehicle: saline): 100 % of control
T/C (dose: 8.0 mg/kg/injection, schedule: Q04DX003 (ip), vehicle: saline): 109 % of control
T/C (dose: 16.0 mg/kg/injection, schedule: Q01DX009 (ip), vehicle: saline): 94 % of control
T/C (dose: 16.0 mg/kg/injection, schedule: Q04DX003 (ip), vehicle: saline): 87 % of control
T/C (dose: 32.0 mg/kg/injection, schedule: Q04DX003 (ip), vehicle: saline): 101 % of control
T/C (dose: 64.0 mg/kg/injection, schedule: Q04DX003 (ip), vehicle: saline): 95 % of control

COc1cc2c(cc1OC)C(C)=NCC2
T/C (dose: 12.0 mg/kg/injection, schedule: Q01DX009 (ip), vehicle: saline): 103 % of control
T/C (dose: 25.0 mg/kg/injection, schedule: Q01DX009 (ip), vehicle: saline): 94 % of control
T/C (dose: 25.0 mg/kg/injection, schedule: Q04DX003 (ip), vehicle: saline): 105 % of control
T/C [12]: 114 % of control
T/C (dose: 50.0 mg/kg/injection, schedule: Q01DX009 (ip), vehicle: saline): 110 % of control
T/C (dose: 50.0 mg/kg/injection, schedule: Q04DX003 (ip), vehicle: saline): 105 % of control
T/C [13]: 104 % of control
T/C (dose: 100.0 mg/kg/injection, schedule: Q04DX003 (ip), vehicle: saline): 102 % of control

CCCCOC(=O)C1OC1(C)c1ccc(C)cc1 (stereo unspecified)
T/C [9]: 103 % of control
T/C [10]: 113 % of control
T/C [11]: 100 % of control

CCCCCCCCCC(C)CCCCCC (stereo unspecified)
T/C (dose: 75.0 mg/kg/injection, schedule: Q01DX001 (ip), vehicle: saline with Tween-80): 100 % of control
T/C (dose: 150.0 mg/kg/injection, schedule: Q01DX001 (ip), vehicle: saline with Tween-80): 116 % of control
T/C (dose: 300.0 mg/kg/injection, schedule: Q01DX001 (ip), vehicle: saline with Tween-80): 92 % of control

NNC(=O)OC12CC3CC(CC(C3)C1)C2
T/C (dose: 25.0 mg/kg/injection, schedule: Q01DX009 (ip), vehicle: saline with Tween-80): 90 % of control
T/C (dose: 50.0 mg/kg/injection, schedule: Q01DX009 (ip), vehicle: saline with Tween-80): 88 % of control
T/C [9]: 98 % of control
T/C [6]: 94 % of control

CC1=CCCC(C)(C)C1/C=C/C(=O)O (stereo unspecified)
T/C [1]: 105 % of control
T/C [3]: 97 % of control
T/C [5]: 101 % of control

O=C1c2ccccc2-c2ncccc21
T/C [1]: 103 % of control
T/C [2]: 98 % of control
T/C [3]: 102 % of control
T/C [4]: 109 % of control
T/C [5]: 92 % of control

Reference: PubChem BioAssay AID248 (DTP/NCI, 2004)
